Assay results reported in ChEMBL document CHEMBL5724914, “Linking interpersonal differences in gut microbiota composition and drug biotransformation activity” (2024).

Assay: (§1) The drug is tested on Z-030 corresponding to mouse gut metagenome with ENA study accession number: PRJEB37062 and ENA sample accession number: ERS12561829 for biotransformation under anaerobic condition. The drug concentrations were measured over 9 timepoints collected between 0 and 24 hours of incubation by liquid-chromatography-coupled mass spectrometry (LC–MS)
Settings: 2 µM
Also: call rule not given here.

SMILES	Bacterial Biotransformation
CN[C@H]1CC[C@@H](c2ccc(Cl)c(Cl)c2)c2ccccc21 [SERTRALINE]	Compound NOT metabolized
O=C(O)CCC(=O)O.O=C(O[C@H]1CN2CCC1CC2)N1CCc2ccccc2[C@@H]1c1ccccc1 [SOLIFENACIN SUCCINATE]	Compound NOT metabolized

Assay: as §1, with “Z-026” for “Z-030”, “to” for “to mouse gut”, “ERS12561825” for “ERS12561829”
Settings: 2 µM

SMILES	Bacterial Biotransformation
CN[C@H]1CC[C@@H](c2ccc(Cl)c(Cl)c2)c2ccccc21 [SERTRALINE]	Compound metabolized
O=C(O)CCC(=O)O.O=C(O[C@H]1CN2CCC1CC2)N1CCc2ccccc2[C@@H]1c1ccccc1 [SOLIFENACIN SUCCINATE]	Compound NOT metabolized

Assay: as §1, with “Z-020” for “Z-030”, “rabbit” for “mouse”, “ERS12561819” for “ERS12561829”
Settings: 2 µM

SMILES	Bacterial Biotransformation
CN[C@H]1CC[C@@H](c2ccc(Cl)c(Cl)c2)c2ccccc21 [SERTRALINE]	Compound metabolized
O=C(O)CCC(=O)O.O=C(O[C@H]1CN2CCC1CC2)N1CCc2ccccc2[C@@H]1c1ccccc1 [SOLIFENACIN SUCCINATE]	Compound metabolized

Assay: as §1, with “Z-008” for “Z-030”, “to” for “to mouse gut”, “ERS12561808” for “ERS12561829”
Settings: 2 µM

SMILES	Bacterial Biotransformation
CN[C@H]1CC[C@@H](c2ccc(Cl)c(Cl)c2)c2ccccc21 [SERTRALINE]	Compound NOT metabolized
O=C(O)CCC(=O)O.O=C(O[C@H]1CN2CCC1CC2)N1CCc2ccccc2[C@@H]1c1ccccc1 [SOLIFENACIN SUCCINATE]	Compound NOT metabolized

Assay: as §1, with “Z-003” for “Z-030”, “pig” for “mouse”, “ERS12561803” for “ERS12561829”
Settings: 2 µM

SMILES	Bacterial Biotransformation
CN[C@H]1CC[C@@H](c2ccc(Cl)c(Cl)c2)c2ccccc21 [SERTRALINE]	Compound metabolized
O=C(O)CCC(=O)O.O=C(O[C@H]1CN2CCC1CC2)N1CCc2ccccc2[C@@H]1c1ccccc1 [SOLIFENACIN SUCCINATE]	Compound metabolized

Assay: as §1, with “WLS-310” for “Z-030”, “human” for “mouse”, “ERS12561785” for “ERS12561829”
Settings: 2 µM

SMILES	Bacterial Biotransformation
CN[C@H]1CC[C@@H](c2ccc(Cl)c(Cl)c2)c2ccccc21 [SERTRALINE]	Compound metabolized
O=C(O)CCC(=O)O.O=C(O[C@H]1CN2CCC1CC2)N1CCc2ccccc2[C@@H]1c1ccccc1 [SOLIFENACIN SUCCINATE]	Compound NOT metabolized

Assay: as §1, with “WLS-220” for “Z-030”, “human” for “mouse”, “ERS12561769” for “ERS12561829”
Settings: 2 µM

SMILES	Bacterial Biotransformation
CN[C@H]1CC[C@@H](c2ccc(Cl)c(Cl)c2)c2ccccc21 [SERTRALINE]	Compound metabolized
O=C(O)CCC(=O)O.O=C(O[C@H]1CN2CCC1CC2)N1CCc2ccccc2[C@@H]1c1ccccc1 [SOLIFENACIN SUCCINATE]	Compound NOT metabolized

Assay: as §1, with “WLS-077” for “Z-030”, “human” for “mouse”, “ERS12561750” for “ERS12561829”
Settings: 2 µM

SMILES	Bacterial Biotransformation
CN[C@H]1CC[C@@H](c2ccc(Cl)c(Cl)c2)c2ccccc21 [SERTRALINE]	Compound metabolized
O=C(O)CCC(=O)O.O=C(O[C@H]1CN2CCC1CC2)N1CCc2ccccc2[C@@H]1c1ccccc1 [SOLIFENACIN SUCCINATE]	Compound NOT metabolized

Assay: as §1, with “WLS-007” for “Z-030”, “human” for “mouse”, “ERS12561742” for “ERS12561829”
Settings: 2 µM

SMILES	Bacterial Biotransformation
CN[C@H]1CC[C@@H](c2ccc(Cl)c(Cl)c2)c2ccccc21 [SERTRALINE]	Compound metabolized
O=C(O)CCC(=O)O.O=C(O[C@H]1CN2CCC1CC2)N1CCc2ccccc2[C@@H]1c1ccccc1 [SOLIFENACIN SUCCINATE]	Compound metabolized

Settings: human gut metagenome, 24 h, 2 µM

SMILES	Bacterial Biotransformation
CN[C@H]1CC[C@@H](c2ccc(Cl)c(Cl)c2)c2ccccc21 [SERTRALINE]	Compound NOT metabolized
O=C(O)CCC(=O)O.O=C(O[C@H]1CN2CCC1CC2)N1CCc2ccccc2[C@@H]1c1ccccc1 [SOLIFENACIN SUCCINATE]	Compound metabolized

Settings: human gut metagenome, 24 h, 2 µM
Remark: another data set of the same source

SMILES	Bacterial Biotransformation
CN[C@H]1CC[C@@H](c2ccc(Cl)c(Cl)c2)c2ccccc21 [SERTRALINE]	Compound NOT metabolized
O=C(O)CCC(=O)O.O=C(O[C@H]1CN2CCC1CC2)N1CCc2ccccc2[C@@H]1c1ccccc1 [SOLIFENACIN SUCCINATE]	Compound metabolized

Settings: human gut metagenome, 24 h, 2 µM
Remark: another data set of the same source

SMILES	Bacterial Biotransformation
CN[C@H]1CC[C@@H](c2ccc(Cl)c(Cl)c2)c2ccccc21 [SERTRALINE]	Compound metabolized
O=C(O)CCC(=O)O.O=C(O[C@H]1CN2CCC1CC2)N1CCc2ccccc2[C@@H]1c1ccccc1 [SOLIFENACIN SUCCINATE]	Compound metabolized

Settings: human gut metagenome, 24 h, 2 µM
Remark: another data set of the same source

SMILES	Bacterial Biotransformation
CN[C@H]1CC[C@@H](c2ccc(Cl)c(Cl)c2)c2ccccc21 [SERTRALINE]	Compound NOT metabolized
O=C(O)CCC(=O)O.O=C(O[C@H]1CN2CCC1CC2)N1CCc2ccccc2[C@@H]1c1ccccc1 [SOLIFENACIN SUCCINATE]	Compound NOT metabolized

Settings: human gut metagenome, 24 h, 2 µM
Remark: another data set of the same source

SMILES	Bacterial Biotransformation
CN[C@H]1CC[C@@H](c2ccc(Cl)c(Cl)c2)c2ccccc21 [SERTRALINE]	Compound NOT metabolized
O=C(O)CCC(=O)O.O=C(O[C@H]1CN2CCC1CC2)N1CCc2ccccc2[C@@H]1c1ccccc1 [SOLIFENACIN SUCCINATE]	Compound NOT metabolized

Settings: human gut metagenome, 24 h, 2 µM
Remark: another data set of the same source

SMILES	Bacterial Biotransformation
CN[C@H]1CC[C@@H](c2ccc(Cl)c(Cl)c2)c2ccccc21 [SERTRALINE]	Compound NOT metabolized
O=C(O)CCC(=O)O.O=C(O[C@H]1CN2CCC1CC2)N1CCc2ccccc2[C@@H]1c1ccccc1 [SOLIFENACIN SUCCINATE]	Compound metabolized

Settings: human gut metagenome, 24 h, 2 µM
Remark: another data set of the same source

SMILES	Bacterial Biotransformation
CN[C@H]1CC[C@@H](c2ccc(Cl)c(Cl)c2)c2ccccc21 [SERTRALINE]	Compound metabolized
O=C(O)CCC(=O)O.O=C(O[C@H]1CN2CCC1CC2)N1CCc2ccccc2[C@@H]1c1ccccc1 [SOLIFENACIN SUCCINATE]	Compound metabolized

Settings: human gut metagenome, 24 h, 2 µM
Remark: another data set of the same source

SMILES	Bacterial Biotransformation
CN[C@H]1CC[C@@H](c2ccc(Cl)c(Cl)c2)c2ccccc21 [SERTRALINE]	Compound NOT metabolized
O=C(O)CCC(=O)O.O=C(O[C@H]1CN2CCC1CC2)N1CCc2ccccc2[C@@H]1c1ccccc1 [SOLIFENACIN SUCCINATE]	Compound metabolized

Settings: human gut metagenome, 24 h, 2 µM
Remark: another data set of the same source

SMILES	Bacterial Biotransformation
CN[C@H]1CC[C@@H](c2ccc(Cl)c(Cl)c2)c2ccccc21 [SERTRALINE]	Compound NOT metabolized
O=C(O)CCC(=O)O.O=C(O[C@H]1CN2CCC1CC2)N1CCc2ccccc2[C@@H]1c1ccccc1 [SOLIFENACIN SUCCINATE]	Compound metabolized

Settings: human gut metagenome, 24 h, 2 µM
Remark: another data set of the same source

SMILES	Bacterial Biotransformation
CN[C@H]1CC[C@@H](c2ccc(Cl)c(Cl)c2)c2ccccc21 [SERTRALINE]	Compound metabolized
O=C(O)CCC(=O)O.O=C(O[C@H]1CN2CCC1CC2)N1CCc2ccccc2[C@@H]1c1ccccc1 [SOLIFENACIN SUCCINATE]	Compound metabolized

Settings: human gut metagenome, 24 h, 2 µM
Remark: another data set of the same source

SMILES	Bacterial Biotransformation
CN[C@H]1CC[C@@H](c2ccc(Cl)c(Cl)c2)c2ccccc21 [SERTRALINE]	Compound NOT metabolized
O=C(O)CCC(=O)O.O=C(O[C@H]1CN2CCC1CC2)N1CCc2ccccc2[C@@H]1c1ccccc1 [SOLIFENACIN SUCCINATE]	Compound metabolized
